From US5840684A, “Glycopeptide antibiotic derivatives” (Eli Lilly and Company, priority 1995, dated 1998) come the findings set out here.

In brackets after ≈: the same amount, converted by molar mass.

The subject of assay [1] is vancomycin-resistant enterococci. The assay can be described thus: broth micro-dilution, mean geometric MIC. The class given is cell-based, Enterococcus faecium and Enterococcus faecalis. As to conditions: enterococci, 24-hour incubation. On the technique in general: In broth dilution the organism is exposed to a series of concentrations in liquid medium.
Assay [2] has as its system Staphylococcus aureus SA1199B. The assay is classed as cell-based. The method, then:
(§1) The MIC's were determined using a standard broth micro-dilution assay.

Assay [3] deals with Staphylococcus aureus S13E. The assay is classed as cell-based. The method, then:
as §1

Assay [4] deals with Streptococcus pneumoniae P1. Put plainly: broth micro-dilution MIC. The assay is classed as cell-based. The method, then:
(§2) The formula I compounds have in vitro and in vivo activity against Gram-positive pathogenic bacteria. The MIC's were determined using a standard broth micro-dilution assay.

For assay [5], the system named is Enterococcus gallinarum 245. Put plainly: broth micro-dilution MIC. The class given is cell-based. As to conditions: Enterococcus gallinarum 245. The method, then: as §2
The test system of assay [6] is Staphylococcus haemolyticus 415. Put plainly: broth micro-dilution MIC. The class given is cell-based. The method, then: as §2
Assay [7] relates to Staphylococcus haemolyticus 105. The assay can be described thus: broth micro-dilution MIC. The assay is classed as cell-based. The method, then:
as §2

The test system of a further assay is Entercoccus faecium 2041. The assay can be described thus: broth micro-dilution MIC. The assay is classed as cell-based. As to conditions: Entercoccus faecium 2041. The method, then: as §2
Assay [8] deals with Staphylococcus epidermidis 270. The assay can be described thus: broth micro-dilution MIC. The assay is classed as cell-based. The method, then:
as §2

For assay [9], the system named is vancomycin-susceptible enterococci. The assay can be described thus: broth micro-dilution, mean geometric MIC. The class given is cell-based, Enterococcus faecium and Enterococcus faecalis. As to conditions: enterococci, 24-hour incubation.
The subject of a further assay is Entercoccus faecium 276. The assay can be described thus: broth micro-dilution MIC. The class given is cell-based. The method, then:
as §1

Assay [10] has as its system Staphylococcus aureus X400. The assay can be described thus: broth micro-dilution MIC. The class given is cell-based. The method, then: as §1
For assay [11], the system named is Staphylococcus aureus SA1199A. Put plainly: broth micro-dilution MIC. The class given is cell-based. The method, then:
as §1

The test system of assay [12] is Entercoccus faecium 180-1. The assay can be described thus: broth micro-dilution MIC. The class given is cell-based. The method, then:
as §1

The subject of assay [13] is Staphylococcus aureus X778. The assay can be described thus: broth micro-dilution MIC. The class given is cell-based. The method, then: as §1
In assay [14] the test system is Staphylococcus aureus SA1199. The assay can be described thus: broth micro-dilution MIC. The class given is cell-based. The method, then: as §1
Assay [15] relates to Staphylococcus aureus 489. Put plainly: broth micro-dilution MIC. The assay is classed as cell-based. The method, then:
as §1

Assay [16] has as its system Staphylococcus aureus 446. The assay can be described thus: broth micro-dilution MIC. The assay is classed as cell-based. The method, then: as §1
For assay [17], the system named is Streptococcus pyogenes C203. Put plainly: broth micro-dilution MIC. The assay is classed as cell-based. The method, then:
as §1

A further assay concerns Entercoccus faecium 180. Put plainly: broth micro-dilution MIC. The class given is cell-based. As to conditions: Entercoccus faecium 180. The method, then:
as §2

The test system of assay [18] is Staphylococcus aureus 447. The assay can be described thus: broth micro-dilution MIC. The class given is cell-based. The method, then: as §1

For `CNC(CC(C)C)C(=O)NC1C(=O)NC(CC(N)=O)C(=O)NC2C(=O)NC3C(=O)NC(C(=O)NC(C(=O)O)c4cc(O)cc(O)c4-c4cc3ccc4O)C(OC3CC(C)(N)C(O)C(C)O3)c3ccc(c(Cl)c3)Oc3cc2cc(c3OC2OC(CO)C(O)C(O)C2OC2CC(C)(NCc3ccc(Oc4ccc(OC)cc4)cc3)C(O)C(C)O2)Oc2ccc(cc2Cl)C1O` (centres unmarked) [Compound 98], the “mean geometric MIC, Vancomycin Resistant Strains” value in assay [1] was determined as 2.4 µg/mL. Further, the MIC (in general, the lowest concentration found to suppress growth) is 1 µg/mL (≈ 0.554 µM) in assay [2]; 0.5 µg/mL (≈ 0.277 µM) in [3]; at most 0.06 µg/mL in [4]; 1 µg/mL (≈ 0.554 µM) in assay [5]; 1 µg/mL (≈ 0.554 µM) in [6]; 1 µg/mL (≈ 0.554 µM) in [7]. Further, the minimal inhibitory concentration (MIC) against Entercoccus faecium 2041 was at most 0.06 µg/mL; in [8] it was at most 0.06 µg/mL; in the assay on Entercoccus faecium 276, 0.125 µg/mL (≈ 0.0693 µM); in assay [10], at most 0.06 µg/mL; in [11], at most 0.06 µg/mL; in assay [12] it was at most 0.06 µg/mL. Besides, the MIC in assay [13] is at most 0.06 µg/mL; in assay [14] it was 0.5 µg/mL (≈ 0.277 µM); in [15], at most 0.06 µg/mL; in assay [16], 0.5 µg/mL (≈ 0.277 µM); in [17] it was at most 0.06 µg/mL. For the same molecule, the “mean geometric MIC, Vancomycin Sensitive Strains” value in assay [9] was determined as 0.095 µg/mL.
On to `CNC(CC(C)C)C(=O)NC1C(=O)NC(CC(N)=O)C(=O)NC2C(=O)NC3C(=O)NC(C(=O)NC(C(=O)O)c4cc(O)cc(O)c4-c4cc3ccc4O)C(OC3CC(C)(N)C(O)C(C)O3)c3ccc(c(Cl)c3)Oc3cc2cc(c3OC2OC(CO)C(O)C(O)C2OC2CC(C)(NCc3ccc(-c4ccccn4)cc3)C(O)C(C)O2)Oc2ccc(cc2Cl)C1O` (centres unmarked) [Compound 137], for which the “mean geometric MIC, Vancomycin Resistant Strains” value in assay [1] is 6.7 µg/mL. Also, the MIC in [2] is at most 0.06 µg/mL; in assay [3], at most 0.06 µg/mL; in assay [4], at most 0.06 µg/mL; in assay [5] it was 8 µg/mL (≈ 4.55 µM); in assay [6], 8 µg/mL (≈ 4.55 µM); in assay [7], 2 µg/mL (≈ 1.14 µM). Also, the MIC was at most 0.06 µg/mL against Entercoccus faecium 2041; 0.125 µg/mL (≈ 0.071 µM) in the assay with Entercoccus faecium 180; 0.5 µg/mL (≈ 0.284 µM) in [8]; at most 0.06 µg/mL against Entercoccus faecium 276; at most 0.06 µg/mL in assay [10]; at most 0.06 µg/mL in assay [11]. Moreover, the MIC in assay [12] was at most 0.06 µg/mL; in assay [13], at most 0.06 µg/mL; in [14], at most 0.06 µg/mL; in [15], at most 0.06 µg/mL; in [18], 4 µg/mL (≈ 2.27 µM); in assay [17], at most 0.06 µg/mL. Further, the “mean geometric MIC, Vancomycin Sensitive Strains” value in [9] was determined as 0.38 µg/mL.
Regarding `CNC(CC(C)C)C(=O)NC1C(=O)NC(CC(N)=O)C(=O)NC2C(=O)NC3C(=O)NC(C(=O)NC(C(=O)O)c4cc(O)cc(O)c4-c4cc3ccc4O)C(OC3CC(C)(N)C(O)C(C)O3)c3ccc(c(Cl)c3)Oc3cc2cc(c3OC2OC(CO)C(O)C(O)C2OC2CC(C)(NCc3ccc(OC(C)=O)cc3)C(O)C(C)O2)Oc2ccc(cc2Cl)C1O` (centres unmarked) [Compound 138], the “mean geometric MIC, Vancomycin Resistant Strains” value in assay [1] was determined as 38 µg/mL. The MIC in assay [2] was 0.5 µg/mL (≈ 0.287 µM); in assay [3], at most 0.06 µg/mL; in [4], at most 0.06 µg/mL; in assay [6] it was 8 µg/mL (≈ 4.6 µM); in assay [7], 4 µg/mL (≈ 2.3 µM); in the assay on Entercoccus faecium 2041, at most 0.06 µg/mL. For the same molecule, the MIC was 4 µg/mL (≈ 2.3 µM) against Entercoccus faecium 180; 2 µg/mL (≈ 1.15 µM) in [8]; at most 0.06 µg/mL against Entercoccus faecium 276; at most 0.0606 µg/mL in assay [10]; at most 0.06 µg/mL in assay [11]; at most 0.06 µg/mL in [12]. Besides, the minimum inhibitory concentration (MIC) was at most 0.06 µg/mL in assay [14], at most 0.06 µg/mL in [15], 2 µg/mL (≈ 1.15 µM) in assay [18] and at most 0.06 µg/mL in assay [17].
As to `CNC(CC(C)C)C(=O)NC1C(=O)NC(CC(N)=O)C(=O)NC2C(=O)NC3C(=O)NC(C(=O)NC(C(=O)O)c4cc(O)cc(O)c4-c4cc3ccc4O)C(OC3CC(C)(N)C(O)C(C)O3)c3ccc(cc3)Oc3cc2cc(c3OC2OC(CO)C(O)C(O)C2OC2CC(C)(NCc3ccc(-c4ccccc4)cc3)C(O)C(C)O2)Oc2ccc(cc2)C1O` (centres unmarked) [Compound 183], in assay [1], the “mean geometric MIC, Vancomycin Resistant Strains” value is 23 µg/mL. Moreover, the MIC in assay [2] was at most 0.06 µg/mL; in assay [3] it was at most 0.06 µg/mL; in [4], at most 0.06 µg/mL; in assay [5], 0.5 µg/mL (≈ 0.296 µM); in assay [6] it was at most 0.06 µg/mL; in assay [7] it was at most 0.06 µg/mL. Besides, the MIC against Entercoccus faecium 2041 is at most 0.06 µg/mL; in the assay on Entercoccus faecium 180, 2 µg/mL (≈ 1.18 µM); in assay [8] it was at most 0.06 µg/mL; in [10], at most 0.06 µg/mL; in [11], at most 0.06 µg/mL; in assay [12], at most 0.06 µg/mL. In addition, the MIC in [13], in [14], in assay [15], in assay [16], in [18] and in [17] was at most 0.06 µg/mL each time. Further, in assay [9], the “mean geometric MIC, Vancomycin Sensitive Strains” value was found to be 0.130 µg/mL.
Turning to `C=CCCCCNC1(C)CC(OC2C(Oc3c4cc5cc3Oc3ccc(cc3Cl)C(OC3CC(C)(N)C(O)C(C)O3)C3NC(=O)C(NC(=O)C5NC(=O)C(CC(N)=O)NC(=O)C(NC(=O)C(CC(C)C)NC)C(O)c5ccc(c(Cl)c5)O4)c4ccc(O)c(c4)-c4c(O)cc(O)cc4C(C(=O)O)NC3=O)OC(CO)C(O)C2O)OC(C)C1O` (centres unmarked) [Compound 217], the “mean geometric MIC, Vancomycin Resistant Strains” value in assay [1] came out at 13 µg/mL. Further, the minimum inhibitory concentration (MIC) is 0.125 µg/mL (≈ 0.0746 µM) in assay [2]; at most 0.06 µg/mL in assay [3]; at most 0.06 µg/mL in assay [4]; 8 µg/mL (≈ 4.78 µM) in [5]; 8 µg/mL (≈ 4.78 µM) in assay [6]; 2 µg/mL (≈ 1.19 µM) in assay [7]. The MIC against Entercoccus faecium 2041 is at most 0.06 µg/mL; with Entercoccus faecium 180, 2 µg/mL (≈ 1.19 µM); in [8] it was 0.5 µg/mL (≈ 0.299 µM); in the assay with Entercoccus faecium 276 it was at most 0.06 µg/mL; in assay [10], at most 0.06 µg/mL; in [11], at most 0.06 µg/mL. For the same molecule, the MIC in assay [12] was at most 0.06 µg/mL; in assay [13], at most 0.06 µg/mL; in assay [14], at most 0.06 µg/mL; in [15] it was at most 0.06 µg/mL; in assay [18], 1 µg/mL (≈ 0.597 µM); in assay [17] it was at most 0.06 µg/mL. The “mean geometric MIC, Vancomycin Sensitive Strains” value in assay [9] is 0.57 µg/mL.
`CNC(CC(C)C)C(=O)NC1C(=O)NC(CC(N)=O)C(=O)NC2C(=O)NC3C(=O)NC(C(=O)NC(C(=O)O)c4cc(O)cc(O)c4-c4cc3ccc4O)C(OC3CC(C)(N)C(O)C(C)O3)c3ccc(c(Cl)c3)Oc3cc2cc(c3OC2OC(CO)C(O)C(O)C2OC2CC(C)(NCC3CCC(Cc4ccccc4)CC3)C(O)C(C)O2)Oc2ccc(cc2Cl)C1O` (centres unmarked) [Compound 241]: the “mean geometric MIC, Vancomycin Resistant Strains” value in assay [1] was 1.4 µg/mL. The MIC was 1 µg/mL (≈ 0.562 µM) in assay [2]; at most 0.06 µg/mL in assay [4]; at most 0.06 µg/mL in [5]; 1 µg/mL (≈ 0.562 µM) in [6]; 1 µg/mL (≈ 0.562 µM) in assay [7]; at most 0.06 µg/mL against Entercoccus faecium 2041. Also, the minimum inhibitory concentration (MIC) is at most 0.06 µg/mL with Entercoccus faecium 180; 0.5 µg/mL (≈ 0.281 µM) in assay [8]; at most 0.06 µg/mL against Entercoccus faecium 276; 0.5 µg/mL (≈ 0.281 µM) in assay [10]; at most 0.06 µg/mL in assay [11]; at most 0.06 µg/mL in assay [12]. In addition, the minimal inhibitory concentration (MIC) is 1 µg/mL (≈ 0.562 µM) in assay [13]; 1 µg/mL (≈ 0.562 µM) in [14]; 0.5 µg/mL (≈ 0.281 µM) in [15]; 0.5 µg/mL (≈ 0.281 µM) in assay [16]; 1 µg/mL (≈ 0.562 µM) in assay [18]; at most 0.06 µg/mL in [17]. In assay [9], the “mean geometric MIC, Vancomycin Sensitive Strains” value was 0.048 µg/mL.
